According to patent US9365550B2, “Benzimidazoles as CNS active agents” (Hoffmann-La Roche Inc., priority 2012, dated 2016):

Experiments:
[1] = system: human embryonic stem cell derived neural stem cells (NSCs); assay: Neural stem cell proliferation assay (neurogenesis assay, ATP/CellTiterGlo); assay type: cell-based; details: 96 h, compound concentration at which 150% activity of control (100%) is reached, NSC proliferation by ATP level after 4 days incubation, dose response 8 μM to 8 nM
Procedure: Neural Stem Cell Proliferation Assay
Neurogenic properties of small molecules are determined based on the proliferation of human embryonic stem cell derived neural stem cells (NSCs) which were derived via a dual smad inhibition as previously described (Chambers, S. M., et al., Highly efficient neural conversion of human ES and iPS cells by dual inhibition of SMAD signaling, Nature biotechnology, 2009. 27(3): p. 275-80.)
Compounds respond is measured by the increase in cells based on ATP levels (Promega:CellTiterGlo®) after an incubation period of 4 days.
NSCs are thawed and expanded over 3 passages. On the 14th day, NSCs are seeded in Polyornithin/Laminin coated 384 well plates at a cell density of 21,000 cells/cm^2 in a media volume of 38 μL.
4 hours after cell seeding, compound solutions are added at a volume of 2 μl. Stock solutions of the compounds (water, 5% DMSO) are diluted to obtain a dose response (11 points, dilution factor is 2), ranging from 8 μM to 8 nM. Controls are run to consistently determine the neurogenic properties of the cells:
Negative (neutral) control is cell culture Media (final DMSO concentration: 0.25%).
Positive controls are: • 1. cell culture Media+100 ng/ml FGF2 (final DMSO concentration: 0.1%) • 2. cell culture Media+20 ng/ml EGF (final DMSO concentration: 0.1%) • 3. cell culture Media+100 ng/ml Wnt3a (final DMSO concentration: 0.1%)
After 4 days incubation at 37° C., 5% CO2, the amount of ATP per well is quantified. The ATP concentration is proportional to the cell number. ATP is quantified by using the Promega CellTiterGlo® kit. The CellTiterGlo® reagents contain a cell lysis buffer, a thermo stable luciferase (UltraGlo™ recombinant luciferase), magnesium and luciferin. Luciferin reacts with ATP producing oxyluciferin, AMP and light. The luminescence signal is proportional to the ATP content.
The value of negative (neutral) control is determined for each assay plate by taking the average of 16 negative control wells. The neurogenic compound response is calculated for each compound as (compound/Negative Control)*100.
The values of EC150 from the dose response curve are determined for each test compound. The EC150 is the compound concentration at which 150% activity of control (100%) is reached.

Row | Structure (SMILES) | melting point | EC150 [1]
1 | Cc1ccc(-n2nccc2-c2ccc3ncn(-c4ccccc4)c3c2)cc1 [Example 4, 1-Phenyl-6-(2-p-tolyl-2H-pyrazol-3-yl)-1H-benzoimidazole] |  | 0.015 µM
2 | Fc1ccc(-n2cnc3ccc(-c4ccnn4-c4ccccc4)cc32)cc1 [Example 7, 1-(4-Fluoro-phenyl)-6-(2-phenyl-2H-pyrazol-3-yl)-1H-benzoimidazole] | 194 °C | 0.031 µM
3 | Fc1ccc(-n2nccc2-c2ccc3ncn(-c4ccc(F)cc4)c3c2)cc1 [Example 8, 1-(4-Fluoro-phenyl)-6-[2-(4-fluoro-phenyl)-2H-pyrazol-3-yl]-1H-benzoimidazole] | 173 °C | 0.044 µM
4 | Fc1ccc(-n2nccc2-c2ccc3ncn(-c4ccccc4)c3c2)cc1 [Example 3, 6-[2-(4-Fluoro-phenyl)-2H-pyrazol-3-yl]-1-phenyl-1H-benzoimidazole] | 201 °C | 0.024 µM
5 | FC(F)(F)c1ccc(-n2nccc2-c2ccc3ncn(-c4ccc(Cl)cc4)c3c2)cc1 [Example 12, 1-(4-Chloro-phenyl)-6-[2-(4-trifluoromethyl-phenyl)-2H-pyrazol-3-yl]-1H-benzoimidazole] | 198 °C | 0.71 µM
6 | Cc1ccc(-n2nccc2-c2ccc3ncn(-c4ccc(F)cc4)c3c2)cc1 [Example 9, 1-(4-Fluoro-phenyl)-6-(2-p-tolyl-2H-pyrazol-3-yl)-1H-benzoimidazole] |  | 0.009 µM
7 | FC(F)(F)c1ccc(-n2cnc3ccc(-c4ccnn4-c4ccc(Cl)cc4)cc32)cc1 [Example 14, 6-[2-(4-Chloro-phenyl)-2H-pyrazol-3-yl]-1-(4-trifluoromethyl-phenyl)-1H-benzoimidazole] | 196 °C | 0.62 µM
8 | Fc1ccc(-n2cnc3ccc(-c4ccnn4-c4ccc(Cl)cc4)cc32)cc1 [Example 11, 6-[2-(4-Chloro-phenyl)-2H-pyrazol-3-yl]-1-(4-fluoro-phenyl)-1H-benzoimidazole] | 180 °C | 0.11 µM
9 | Fc1ccc(-n2cnc3ccc(-c4ccnn4-c4ccc(C(F)(F)F)cc4)cc32)cc1 [Example 10, 1-(4-Fluoro-phenyl)-6-[2-(4-trifluoromethyl-phenyl)-2H-pyrazol-3-yl]-1H-benzoimidazole] | 167 °C | 1.1 µM
10 | Clc1ccc(-n2nccc2-c2ccc3ncn(-c4ccc(Cl)cc4)c3c2)cc1 [Example 13, 1-(4-Chloro-phenyl)-6-[2-(4-chloro-phenyl)-2H-pyrazol-3-yl]-1H-benzoimidazole] | 182 °C | 0.082 µM
11 | c1ccc(-n2nccc2-c2ccc3ncn(-c4ccccc4)c3c2)cc1 [Example 2, 1-Phenyl-6-(2-phenyl-2H-pyrazol-3-yl)-1H-benzoimidazole] | 194 °C | 0.014 µM
12 | Cc1ccc(-n2cnc3ccc(-c4ccnn4-c4ccccc4)cc32)cc1 [Example 5, 6-(2-Phenyl-2H-pyrazol-3-yl)-1-p-tolyl-1H-benzoimidazole] | 146 °C | 0.0165 µM
13 | Cc1ccc(-n2cnc3ccc(-c4ccnn4-c4ccc(F)cc4)cc32)cc1 [Example 6, 6-[2-(4-Fluoro-phenyl)-2H-pyrazol-3-yl]-1-p-tolyl-1H-benzoimidazole] | 149 °C | 0.0195 µM
14 | Cc1ccc(-n2nccc2-c2ccc3ncn(-c4ccc(C)cc4)c3c2)cc1 [Example 1, 1-p-Tolyl-6-(2-p-tolyl-2H-pyrazol-3-yl)-1H-benzoimidazole] | 165 °C | 0.008 µM
15 | Fc1ccc(-n2cnc3ccc(-c4ccnn4-c4ccc(C(F)(F)F)cc4)cc32)c(F)c1 [Example 15, 1-(2,4-Difluoro-phenyl)-6-[2-(4-trifluoromethyl-phenyl)-2H-pyrazol-3-yl]-1H-benzoimidazole] | 129 °C | 1.33 µM

More lines, main results first:

Row | melting point | Structure (SMILES) | EC150 [1]
16 | 163 °C | COc1ccc(-n2cnc3ccc(-c4ccnn4-c4ccc(Cl)cc4)cc32)cc1 [Example 25, 6-[2-(4-Chloro-phenyl)-2H-pyrazol-3-yl]-1-(4-methoxy-phenyl)-1H-benzoimidazole] | 0.056 µM
17 | 133 °C | Fc1ccc(-n2cnc3ccc(-c4ccnn4-c4ccc(Cl)cc4)cc32)c(F)c1 [Example 16, 6-[2-(4-Chloro-phenyl)-2H-pyrazol-3-yl]-1-(2,4-difluoro-phenyl)-1H-benzoimidazole] | 0.19 µM
18 | 254 °C | Fc1ccc(-n2cnc3ccc(-c4cncn4-c4ccc(Cl)cc4)cc32)cc1 [Example 29, 6-[3-(4-Chloro-phenyl)-3H-imidazol-4-yl]-1-(4-fluoro-phenyl)-1H-benzoimidazole] | 0.074 µM
19 | 143 °C | COc1ccc(-n2cnc3ccc(-c4ccnn4-c4ccc(F)cc4)cc32)cc1 [Example 24, 6-[2-(4-Fluoro-phenyl)-2H-pyrazol-3-yl]-1-(4-methoxy-phenyl)-1H-benzoimidazole] | 0.021 µM
20 | 173 °C | Fc1ccc(-n2nccc2-c2ccc3ncn(-c4ccc(Cl)cc4)c3c2)cc1 [Example 19, 1-(4-Chloro-phenyl)-6-[2-(4-fluoro-phenyl)-2H-pyrazol-3-yl]-1H-benzoimidazole] | 0.09 µM
21 | 158 °C | Fc1cc(Cl)ccc1-n1cnc2ccc(-c3ccnn3-c3ccc(Cl)cc3)cc21 [Example 23, 1-(4-Chloro-2-fluoro-phenyl)-6-[2-(4-chloro-phenyl)-2H-pyrazol-3-yl]-1H-benzoimidazole] | 0.17 µM
22 | 199 °C | Fc1ccc(-n2nccc2-c2ccc3ncn(-c4ccncc4)c3c2)cc1 [Example 20, 6-[2-(4-Fluoro-phenyl)-2H-pyrazol-3-yl]-1-pyridin-4-yl-1H-benzoimidazole] | 0.044 µM
23 | 203 °C | Clc1ccc(-n2nccc2-c2ccc3ncn(-c4ccncc4)c3c2)cc1 [Example 21, 6-[2-(4-Chloro-phenyl)-2H-pyrazol-3-yl]-1-pyridin-4-yl-1H-benzoimidazole] | 0.036 µM
24 | 153 °C | Fc1ccc(-n2nccc2-c2ccc3ncn(-c4ccc(Cl)cc4F)c3c2)cc1 [Example 22, 1-(4-Chloro-2-fluoro-phenyl)-6-[2-(4-fluoro-phenyl)-2H-pyrazol-3-yl]-1H-benzoimidazole] | 0.084 µM
25 | 216 °C | Fc1ccc(-n2cnc3ccc(-c4cncn4-c4ccccc4)cc32)cc1 [Example 28, 1-(4-Fluoro-phenyl)-6-(3-phenyl-3H-imidazol-4-yl)-1H-benzoimidazole] | 0.07 µM
26 | 152 °C | Fc1ccc(-n2nccc2-c2ccc3ncn(-c4ccc(F)cc4F)c3c2)cc1 [Example 17, 1-(2,4-Difluoro-phenyl)-6-[2-(4-fluoro-phenyl)-2H-pyrazol-3-yl]-1H-benzoimidazole] | 0.047 µM
27 | 280 °C | CS(=O)(=O)c1ccc(-n2cnc3ccc(-c4ccnn4-c4ccc(Cl)cc4)cc32)cc1 [Example 27, 6-[2-(4-Chloro-phenyl)-2H-pyrazol-3-yl]-1-(4-methanesulfonyl-phenyl)-1H-benzoimidazole] | 0.16 µM
28 | 247 °C | CS(=O)(=O)c1ccc(-n2cnc3ccc(-c4ccnn4-c4ccc(F)cc4)cc32)cc1 [Example 26, 6-[2-(4-Fluoro-phenyl)-2H-pyrazol-3-yl]-1-(4-methanesulfonyl-phenyl)-1H-benzoimidazole] | 0.28 µM
29 | 204 °C | Fc1ccc(-n2nccc2-c2ccc3ncn(-c4ccc(C(F)(F)F)cc4)c3c2)cc1 [Example 18, 6-[2-(4-Fluoro-phenyl)-2H-pyrazol-3-yl]-1-(4-trifluoromethyl-phenyl)-1H-benzoimidazole] | 0.41 µM
30 | 247 °C | Fc1ccc(-n2cncc2-c2ccc3ncn(-c4ccc(F)cc4)c3c2)cc1 [Example 30, 1-(4-Fluoro-phenyl)-6-[3-(4-fluoro-phenyl)-3H-imidazol-4-yl]-1H-benzoimidazole] | 0.11 µM
